# According to patent US6858739B2, “Indole and benzimidazole 15-lipoxygenase inhibitors” (Warner-Lambert Company, priority 2000, dated 2005):
# Legend:
# [1] = target: T1, rabbit reticulocyte 15-LO (Oryctolagus cuniculus, UniProt P12530); test: 15-LO inhibition, rabbit reticulocyte enzyme (HPLC method of Auerbach et al.); assay type: biochemical; conditions: linoleic acid as substrate, incubation at 4° C. for 10 minutes
# T1 construct: one utilizing rabbit reticulocyte 15-LO; from tissue; host or cells: rabbit reticulocytes
# T1 sequence (P12530 1-663): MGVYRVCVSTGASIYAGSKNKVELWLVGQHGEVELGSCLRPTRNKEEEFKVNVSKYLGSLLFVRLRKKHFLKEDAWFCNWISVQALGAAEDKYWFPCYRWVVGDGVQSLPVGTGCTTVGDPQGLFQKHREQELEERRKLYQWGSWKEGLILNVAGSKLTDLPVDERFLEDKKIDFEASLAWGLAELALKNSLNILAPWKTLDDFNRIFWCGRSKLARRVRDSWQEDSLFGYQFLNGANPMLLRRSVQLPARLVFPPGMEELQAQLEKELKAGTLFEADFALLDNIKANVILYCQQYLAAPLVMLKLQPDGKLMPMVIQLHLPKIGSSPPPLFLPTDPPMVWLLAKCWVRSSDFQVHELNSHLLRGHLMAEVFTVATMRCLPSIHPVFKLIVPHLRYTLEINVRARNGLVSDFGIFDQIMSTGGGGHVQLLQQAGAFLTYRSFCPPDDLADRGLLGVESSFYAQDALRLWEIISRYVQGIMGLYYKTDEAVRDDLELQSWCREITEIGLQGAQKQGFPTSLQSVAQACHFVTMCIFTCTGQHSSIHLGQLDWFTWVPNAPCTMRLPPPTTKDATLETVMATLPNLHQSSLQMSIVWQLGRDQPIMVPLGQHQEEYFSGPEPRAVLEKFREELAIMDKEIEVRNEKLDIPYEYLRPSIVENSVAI
# Procedure: (§1) The compounds described above are effective inhibitors of 15-LO when evaluated in standard assays routinely utilized to measure 15-LO activity. Specifically, representative compounds were evaluated by the methods described by Auerbach et al., Analytical Biochemistry, 1992;201:375-380. Two in vitro assays were utilized, one utilizing rabbit reticulocyte 15-LO, the other using human 15-LO. Both used linoleic acid as substrate, to enzymatically produce a peroxide oxidation product known as 13(S)-HPODE. N-Benzoyl leucomethylene blue was utilized as a colorimetric reagent for detection and quantification of the peroxide formation. Also, HPLC was utilized to quantify the oxidation following incubation at 4° C. for 10 minutes.
# (§2) Data Column 1 gives the concentration of compound required to inhibit 50% of the activity of 15-LO (IC50) when measured by the HPLC method of Auerbach et al. using rabbit enzymes, and data Column 2 gives data from human 15-LO enzyme.
# [2] = target: T2, human 15-LO (Homo sapiens, UniProt P16050); test: 15-LO inhibition, human enzyme; assay type: biochemical; conditions: linoleic acid as substrate
# T2 sequence (P16050 1-662): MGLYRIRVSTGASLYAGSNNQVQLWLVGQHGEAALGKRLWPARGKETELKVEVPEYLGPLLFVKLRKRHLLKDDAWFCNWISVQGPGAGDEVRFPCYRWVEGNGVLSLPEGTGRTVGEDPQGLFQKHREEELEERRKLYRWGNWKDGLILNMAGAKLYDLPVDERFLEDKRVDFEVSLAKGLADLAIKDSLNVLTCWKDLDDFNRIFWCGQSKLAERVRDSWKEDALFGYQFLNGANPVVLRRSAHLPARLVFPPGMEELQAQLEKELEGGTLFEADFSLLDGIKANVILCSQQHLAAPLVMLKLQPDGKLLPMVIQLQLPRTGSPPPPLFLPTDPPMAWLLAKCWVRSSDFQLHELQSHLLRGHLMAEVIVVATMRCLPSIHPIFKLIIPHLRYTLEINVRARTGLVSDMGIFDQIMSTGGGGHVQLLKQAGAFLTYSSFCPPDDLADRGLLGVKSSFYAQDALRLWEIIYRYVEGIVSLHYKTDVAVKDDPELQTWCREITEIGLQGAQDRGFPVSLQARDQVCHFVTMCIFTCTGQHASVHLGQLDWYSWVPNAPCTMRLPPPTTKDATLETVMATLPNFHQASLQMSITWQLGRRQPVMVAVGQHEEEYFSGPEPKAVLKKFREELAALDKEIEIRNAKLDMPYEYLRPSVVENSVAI
# Procedure: as §1, §2
IC50 [1] [nM],IC50 [2] [nM],melting point [°C],inhibition at 10 µM ([2]; at 10 micromolar) [%],SMILES
27,53,210 to 211,–,"COc1ccc(-c2cc3cc(F)c(F)cc3[nH]2)cc1N [Example 3, 5-(5,6-Difluoro-1H-indol-2-yl)-2-methoxy-phenylamine]"
19,73,217 to 219,–,"COc1ccc(-c2cc3cc(F)c(F)cc3[nH]2)cc1NS(=O)(=O)c1cc(Cl)cc(Cl)c1 [Example 8, 3,5-Dichloro-N-[5-(5,6-difluoro-1H-indol-2-yl)-2-methoxy-phenyl]-benzenesulfonamide]"
40,7,211 to 213,–,"COc1ccc(-c2cc3cc(F)c(F)cc3[nH]2)cc1NS(=O)(=O)c1cccs1 [Example 9, Thiophene-2-sulfonic acid [5-(5,6-difluoro-1H-indol-2-yl)-2-methoxy-phenyl]-amide]"
1390,–,195 to 198,81,"COc1ccc(-c2nc3cc(Cl)c(Cl)cc3n2C(=O)OCc2ccccc2)cc1NS(=O)(=O)c1cccs1 [Example 10, 5,6-Dichloro-2-[4-methoxy-3-(thiophene-2-sulfonylamino)-phenyl]-benzoimidazole-1-carboxylic acid benzyl ester]"
40,414,173 to 175,–,"COc1ccc(CNc2cc(-c3cc4cc(F)c(F)cc4[nH]3)ccc2OC)cc1 [Example 13, [5-(5,6-Difluoro-1H-indol-2-yl)-2-methoxy-phenyl]-(4-methoxy-benzyl)-amine]"
113,1260,168 to 170,–,"COC(=O)c1ccc(CNc2cc(-c3cc4cc(F)c(F)cc4[nH]3)ccc2OC)cc1 [Example 14, 4-{[5-(5,6-Difluoro-1H-indol-2-yl)-2-methoxy-phenylamino]-methyl}-benzoic acid methyl ester]"
124,49,228 to 230,–,"COc1ccc(-c2cc3cc(F)c(F)cc3[nH]2)cc1NS(=O)(=O)c1cccc([N+](=O)[O-])c1 [Example 15, N-[5-(5,6-Difluoro-1H-indol-2-yl)-2-methoxy-phenyl]-3-nitro-benzenesulfonamide]"
37,359,235 to 237,–,"COc1ccc(-c2cc3cc(Cl)c(Cl)cc3[nH]2)cc1N [Example 18, 5-(5,6-Dichloro-1H-indol-2-yl)-2-methoxy-phenylamine]"
45,33,191 to 193,–,"COc1ccc(-c2cc3cc(F)c(F)cc3[nH]2)cc1NC(=S)NCCO [Example 37, 1-[5-(5,6-Difluoro-1H-indol-2-yl)-2-methoxy-phenyl]-3-(2-hydroxy-ethyl)-thiourea]"
19,25,110 to 113,–,"COc1ccc(-c2cc3cc(F)c(F)cc3[nH]2)cc1NC(=S)NCCNC(=O)OC(C)(C)C [Example 38, (2-{3-[5-(5,6-Difluoro-1H-indol-2-yl)-2-methoxy-phenyl]-thioureido}-ethyl)-carbamic acid tert-butyl ester]"
17,36,183 to 186,–,"COc1ccc(-c2cc3cc(F)c(F)cc3[nH]2)cc1NC(=S)Nc1ccc(F)c(F)c1 [Example 39, 1-[5-(5,6-Difluoro-1H-indol-2-yl)-2-methoxy-phenyl]-3-(3,4-difluoro-phenyl)-thiourea]"
5,10,128 to 130,–,"COc1ccc(-c2cc3cc(F)c(F)cc3[nH]2)cc1NC(=S)Nc1cccnc1 [Example 41, 1-[5-(5,6-Difluoro-1H-indol-2-yl)-2-methoxy-phenyl]-3-pyridin-3-yl-thiourea]"
–,127,193 to 194,–,"COc1ccc(-c2cc3cc(Cl)c(Cl)cc3[nH]2)cc1Nc1cccc(C(F)(F)F)c1 [Example 54, [5-(5,6-Dichloro-1H-indol-2-yl)-2-methoxy-phenyl]-(3-trifluoro-methylphenyl)-amine]"

# Second part, the compound before the results:
SMILES,IC50 [1] [nM],IC50 [2] [nM],melting point [°C],inhibition at 10 µM ([2]; at 10 micromolar) [%]
"COc1ccc(-c2cc3ccccc3[nH]2)cc1N [Example 1, 5-(1H-Indol-2-yl)-2-methoxy-phenylamine]",113,23,208 to 209,–
"COc1ccc(-c2cc3ccccc3[nH]2)cc1NC(=S)Nc1cc(Cl)cc(Cl)c1 [Example 2, 1-(3,5-Dichloro-phenyl)-3-[5-(1H-indol-2-yl)-2-methoxy-phenyl]-thiourea]",11,29,199 to 201,–
"COc1ccc(-c2cc3cc(F)c(F)cc3[nH]2)cc1NC(=S)Nc1cc(Cl)cc(Cl)c1 [Example 4, 1-(3,5-Dichloro-phenyl)-3-[5-(5,6-difluoro-1H-indol-2-yl)-2-methoxy-phenyl]-thiourea]",30,60,203 to 205,–
"COc1ccc(-c2cc3cc(F)c(F)cc3[nH]2)cc1NC(=S)Nc1ccc(C(=O)O)cc1 [Example 5, 4-{3-[5-(5,6-Difluoro-1H-indol-2-yl)-2-methoxy-phenyl]-thioureido}-benzoic acid]",11,13,201 to 203,–
"COc1ccc(-c2cc3cc(F)c(F)cc3[nH]2)cc1NC(=S)Nc1cccc(C(=O)O)c1 [Example 6, 3-{3-[5-(5,6-Difluoro-1H-indol-2-yl)-2-methoxy-phenyl]-thioureido}-benzoic acid]",2,25,221 to 223,–
"COc1ccc(-c2cc3cc(F)c(F)cc3[nH]2)cc1NS(C)(=O)=O [Example 7, N-[5-(5,6-Difluoro-1H-indol-2-yl)-2-methoxy-phenyl]-methanesulfonamide]",10,19,254 to 256,–
"COc1ccc(-c2cc3cc(F)c(F)cc3[nH]2)cc1NCc1cccc(O)c1 [Example 11, 3-{[5-(5,6-Difluoro-1H-indol-2-yl)-2-methoxy-phenylamine]-methyl}-phenol]",24,106,–,–
"COc1ccc(-c2cc3cc(F)c(F)cc3[nH]2)cc1NCc1cccs1 [Example 12, [5-(5,6-Difluoro-1H-indol-2-yl)-2-methoxy-phenyl]-thiophen-2-ylmethyl-amine]",45,461,190 to 192,–
"COc1ccc(-c2cc3cc(Cl)c(Cl)cc3[nH]2)cc1NC(=S)Nc1cccc(C(=O)O)c1 [Example 19, 3-{3-[5-(5,6-Dichloro-1H-indol-2-yl)-2-methoxy-phenyl]-thioureido}-benzoic acid]",13,254,216 to 218,–
"CCOP(=O)(Cc1ccc(NC(=S)Nc2cc(-c3cc4cc(F)c(F)cc4[nH]3)ccc2OC)cc1)OCC [Example 24, (4-{3-[5-(5,6-Difluoro-1H-indol-2-yl)-2-methoxy-phenyl]-thioureido}-benzyl)-phosphonic acid diethyl ester]",18,91,180 to 182,–
"COc1ccc(-c2cc3cc(F)c(F)cc3[nH]2)cc1Nc1cccc(OCc2ccccc2)c1 [Example 53, [5-(5,6-Difluoro-1H-indol-2-yl)-2-methoxy-phenyl]-(3-benzyloxy-phenyl)-amine]",16,22,–,–
